Reference: patent publication US10561748B2, “Anthranilic acid derivatives” (priority 2014, dated 2020)
Like-named read-outs stand apart in the source and are kept apart here.

Columns and labels:
P-gp [1] = target: T1, P-gp (Homo sapiens, UniProt P08183); assay: cell-based
Text: (§1) • A. Three different cell lines have been employed: MDCK-P-gp (fluorescent probe Calcein-AM), MDCK-BCRP (florescent probe Rhodamine) and MDCK-MRP1 (fluorescent probe Calcein-AM). These cells overexpress stably human P-gp or BCRP or MRP1. • i.

BCRP = target: T2, BCRP (Homo sapiens, UniProt Q9UNQ0); assay: Activity in MDCK-BCRP cells, fluorescent probe Rhodamine; format: cell-based
T2 construct: expressed in transfected cells; host or cells: MDCK-BCRP
T2 sequence (Q9UNQ0 1-655): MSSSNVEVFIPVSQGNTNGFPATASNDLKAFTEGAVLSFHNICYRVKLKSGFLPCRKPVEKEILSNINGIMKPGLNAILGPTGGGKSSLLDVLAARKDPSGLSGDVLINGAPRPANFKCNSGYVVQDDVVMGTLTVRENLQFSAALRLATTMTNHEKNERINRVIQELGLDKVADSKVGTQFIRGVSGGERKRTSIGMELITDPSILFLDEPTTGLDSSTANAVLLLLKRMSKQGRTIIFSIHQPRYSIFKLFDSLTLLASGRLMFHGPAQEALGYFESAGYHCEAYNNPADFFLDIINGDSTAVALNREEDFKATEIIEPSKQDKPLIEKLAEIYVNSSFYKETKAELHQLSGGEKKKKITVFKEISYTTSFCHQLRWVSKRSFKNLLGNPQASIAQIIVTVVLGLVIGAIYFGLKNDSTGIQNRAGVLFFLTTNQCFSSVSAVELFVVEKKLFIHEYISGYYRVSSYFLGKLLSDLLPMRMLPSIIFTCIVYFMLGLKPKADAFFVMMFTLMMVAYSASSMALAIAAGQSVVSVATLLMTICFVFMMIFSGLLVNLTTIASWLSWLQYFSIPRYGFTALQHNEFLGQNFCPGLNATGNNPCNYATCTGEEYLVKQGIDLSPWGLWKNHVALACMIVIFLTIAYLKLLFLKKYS
Text: as §1

MRP1 = target: T3, MRP1 (Homo sapiens, UniProt P33527); assay: Activity in MDCK-MRP1 cells, fluorescent probe Calcein-AM; format: cell-based
T3 construct: expressed in transfected cells; host or cells: MDCK-MRP1
T3 sequence (P33527 whole entry): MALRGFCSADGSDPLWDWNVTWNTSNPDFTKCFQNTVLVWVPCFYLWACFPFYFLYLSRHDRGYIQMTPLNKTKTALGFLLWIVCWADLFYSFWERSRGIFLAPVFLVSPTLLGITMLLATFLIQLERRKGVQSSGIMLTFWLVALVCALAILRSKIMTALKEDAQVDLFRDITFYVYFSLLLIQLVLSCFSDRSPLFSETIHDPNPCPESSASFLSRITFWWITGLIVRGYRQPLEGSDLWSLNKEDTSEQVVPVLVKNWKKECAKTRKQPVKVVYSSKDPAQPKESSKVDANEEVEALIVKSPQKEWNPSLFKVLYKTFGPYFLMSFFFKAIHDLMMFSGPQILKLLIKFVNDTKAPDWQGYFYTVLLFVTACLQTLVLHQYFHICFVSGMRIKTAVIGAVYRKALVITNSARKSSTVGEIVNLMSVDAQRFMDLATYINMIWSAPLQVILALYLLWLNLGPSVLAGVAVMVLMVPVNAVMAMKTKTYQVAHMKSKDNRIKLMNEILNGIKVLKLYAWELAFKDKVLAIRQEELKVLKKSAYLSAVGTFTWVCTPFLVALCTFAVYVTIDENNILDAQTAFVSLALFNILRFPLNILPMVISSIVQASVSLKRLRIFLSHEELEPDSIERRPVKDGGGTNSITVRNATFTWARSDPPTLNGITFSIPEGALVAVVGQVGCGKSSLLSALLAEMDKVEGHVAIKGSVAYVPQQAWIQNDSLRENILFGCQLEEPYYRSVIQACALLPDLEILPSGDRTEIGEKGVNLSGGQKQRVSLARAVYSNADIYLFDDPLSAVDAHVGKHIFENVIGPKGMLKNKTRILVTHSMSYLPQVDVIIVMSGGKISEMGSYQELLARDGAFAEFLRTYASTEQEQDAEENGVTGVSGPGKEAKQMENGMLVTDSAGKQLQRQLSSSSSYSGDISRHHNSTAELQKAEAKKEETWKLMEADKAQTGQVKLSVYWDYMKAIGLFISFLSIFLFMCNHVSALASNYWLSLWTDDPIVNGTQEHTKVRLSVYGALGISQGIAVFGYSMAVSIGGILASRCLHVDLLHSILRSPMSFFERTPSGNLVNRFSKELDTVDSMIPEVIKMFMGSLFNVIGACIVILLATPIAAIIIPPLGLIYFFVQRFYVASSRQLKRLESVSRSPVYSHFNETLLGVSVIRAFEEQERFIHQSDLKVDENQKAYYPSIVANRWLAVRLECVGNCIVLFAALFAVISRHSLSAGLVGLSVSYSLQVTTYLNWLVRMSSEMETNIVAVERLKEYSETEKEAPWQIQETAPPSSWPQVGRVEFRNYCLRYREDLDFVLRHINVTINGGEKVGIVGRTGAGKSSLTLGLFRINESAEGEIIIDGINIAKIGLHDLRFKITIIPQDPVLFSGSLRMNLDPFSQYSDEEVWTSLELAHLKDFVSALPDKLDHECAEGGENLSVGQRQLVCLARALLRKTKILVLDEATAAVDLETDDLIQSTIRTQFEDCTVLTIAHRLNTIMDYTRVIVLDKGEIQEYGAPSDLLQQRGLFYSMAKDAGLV
Text: as §1

[2] = Protein Plasma Binding (PPB) assay (TRANSIL); format: in vitro ADME, human; settings: human serum albumin and human α1 acid glycoprotein (TRANSIL); for fraction unbound: estimation based on human serum albumin and human α1 acid glycoprotein, read-out: fb (fraction bound to plasma proteins) (converted); for Kd: human, read-out: kD (dissociation constant, plasma protein binding)
Procedure: (§2) Plasma protein binding is measured in terms of the dissociation constant KD: KD=[compound 1a] [P]/[compound 1a-P], wherein [compound 1a-P] is the concentration of compound of Formula 1a bound to the protein P and where [compound 1a] denotes the free concentration of compound of Formula 1a and [P] denotes the free concentration of protein. […] This means there is high free unbound radiotracer available to bind with the target protein for detection.
(§3) fb represents an estimation of the fraction bound to plasma proteins based on human serum albumin and human α1 acid glycoprotein. Binding to other low abundance plasma proteins like lipoproteins, transcortin, and sex hormone binding protein is not considered.
(§4) The TRANSIL Quality Index (TQI) is based on five independent measures derived from the data analysis. For each individual measure a partial quality score on a scale between 0 and 10 is attributed to the estimate. 0 represents lowest quality, while 10 represents highest quality. The final quality index is a weighted average of the partial quality scores.
(§5) Plasma protein binding is measured in terms of the dissociation constant KD: KD=[TQD]

MDCK-MDR1 = assay: Cytotoxicity, MTT assay; format: cell-based; settings: 100 microM
Procedure: Determination of cell growth was performed using the MTT assay at 24 and 48 h. On day 1, 30,000 cells/well were seeded into96-well plates in a volume of 100 μL. On day 2, the various drugs concentration (0.1-100 μM) were added. In all the experiments, the various drug-solvents (ethanol, DMSO) were added in each control to evaluate a possible solvent cytotoxicity. After the established incubation time with compound of Formula 1a, MTT(0.5 mg/mL) was added to each well, and after 3 h incubation at 37° C., the supernatant was removed.

P-gp [3] = target: T1, P-gp; assay: ATP-ase cell depletion (luminescence) in MDCK-MDR1 cells; format: cell-based; set-up: expressed in transfected cells; host or cells: MDCK-P-gp (MDCK cells stably overexpressing human P-gp); settings: at 1 μM, 2 h
Procedure: In order to establish the intrinsic mechanism of compound of Formula la in […] has been defined if it was able to deplete ATP. Compound able to deplete ATP can be considered P-gp substrate while ligand unable to deplete ATP is considered P-gp inhibitor.
The MDCK-MDR1 cells were seeded into 96-well microplate in 100 μL of complete medium at a density 2×10^4 cells/well. The plate was incubated overnight in a humidified atmosphere 5% CO2 at 37° C. The medium was removed and 100 μL of complete medium in the presence or absence of different concentrations of compound of Formula 1a was added. The plate was incubated for 2 h in a humidified atmosphere 5% CO2 at 37° C. Fifty microlitres of mammalian cell lysis solution was added to all wells and the plate was shaken for 5 min in an orbital shaker. Fifty microlitres of substrate solution was added to all wells and the plate was shaken for 5 min in an orbital shaker. The plate was dark adapted for 10 min and the luminescence was measured.

P-gp [4] = target: T1, P-gp; set-up: expressed in transfected cells; host or cells: MDCK-P-gp (MDCK cells stably overexpressing human P-gp); settings: literature value; read-out: EC50 as reported in Kazunori Kawamura, et al.; cited from earlier work
P-gp [5] = assay: In vivo bio-distribution, microPET/CT brain uptake; set-up: species or system mice
Procedure: A set of wild type mice subjects were injected with compound of formula 1b (i.e. [^18F]-labeled compound of formula 1a). Immediately after injection of the tracer compound, scanning was performed on the subject using a microPET/CT system. The study was conducted in deep anaesthesia (oxygen/1.5-2 isoflurane w/o drug-induction) and the animals were treated by adhering to regulatory, ethical and Animal Welfare guidelines subsequent to obtaining approvals. […] The extraction remained constant for the duration of the study and was indicative of a possible selective binding to brain structures.

P-gp [6] = assay: Apparent permeability in Caco-2 cells (BA/AB); format: in vitro ADME; settings: human, BA/AB >2 = transported by P-gp, read-out: Apparent Permeability (B→A/A→B)
Procedure: Ligands displaying BA/AB >2 are transported while ligands having BA/AB <2 are not transported by P-gp.
Caco-2 cells were seeded onto a Millicell assay system (Millipore), where a cell monolayer is set in between a filter cell and a receiver plate, at a density of 10,000 cells/well. The culture medium was replaced every 48 h and the cells kept for 21 days in culture. The Trans Epithelial Electrical Resistance (TEER) of the monolayers was measured daily, before and after the experiment, using an epithelial voltohometer (Millicell-ERS). Generally, TEER values greater than 1000× for a 21 day culture, are considered optimal. Caco-2 cells were seeded onto a Millicell assay system (Millipore), where a cell monolayer is set in between a filter cell and a receiver plate, at a density of 10,000 cells/well. The culture medium was replaced every 48 h and the cells kept for 21 days in culture. The Trans Epithelial Electrical Resistance (TEER) of the monolayers was measured daily, before and after the experiment, using an epithelial voltohometer (Millicell-ERS). Generally, TEER values greater than 1000× for a 21 day culture, are considered. After 21 days of Caco-2 cell growth, the medium was removed from filter wells and from the receiver plate, which were filled with fresh MSS buffer (Invitrogen). […] The apparent permeability (Papp), in units of nm/s, was calculated.

[7] = system: plasma proteins based on human serum albumin and human α1 acid glycoprotein; assay: Protein Plasma Binding (PPB) assay (TRANSIL); format: in vitro ADME; settings: read-out: kD (dissociation constant, plasma protein binding)
Procedure: as §2, §3, §4, §5

[8] = Metabolic stability by rat liver microsomes; format: in vitro ADME
Procedure: Metabolic stability of compound of Formula la was evaluated by incubating test compounds with rat liver microsomes and monitoring parent disappearance within 30 mins using HPLC.
• Column: KINE IEX-C18 • Column temperature: 40° C. • Mobile phase: Gradient. A was 0.1% formic acid in water. B was MeCN. A:B 95:5 to 30:70 over 10 min, to 20:80 over 5 min. • Flow rate: 0.5 ml/min • Injection volume: 50 μL
FIG. 5 illustrated a Chromatogram of Formula la incubated with microsomes fraction only without NADPH regenerating system wherein 489.88 mAU*s represents ligand concentration after incubation Ccontrol. FIG. 6 illustrates a Chromatogram of compound of Formula 1a incubated in the presence of microsomes and NADPH regenerating system wherein 429.56 mAU*s represents ligand concentration Cparent.

[9] = Metabolites (human microsomes), unchanged form; format: in vitro ADME
Text: Metabolites (Human Microsomes)

[10] = Everted gut sac: crossing to mucosal compartment and stability; format: in vitro ADME
Procedure: The compound of Formula la has been inserted in serosal compartment of […] and for 120 mins has been tested: • 1. The concentration in mucosal compartment • 2. The stability in serosal/mucosal compartment

T1 sequence (P08183 whole entry): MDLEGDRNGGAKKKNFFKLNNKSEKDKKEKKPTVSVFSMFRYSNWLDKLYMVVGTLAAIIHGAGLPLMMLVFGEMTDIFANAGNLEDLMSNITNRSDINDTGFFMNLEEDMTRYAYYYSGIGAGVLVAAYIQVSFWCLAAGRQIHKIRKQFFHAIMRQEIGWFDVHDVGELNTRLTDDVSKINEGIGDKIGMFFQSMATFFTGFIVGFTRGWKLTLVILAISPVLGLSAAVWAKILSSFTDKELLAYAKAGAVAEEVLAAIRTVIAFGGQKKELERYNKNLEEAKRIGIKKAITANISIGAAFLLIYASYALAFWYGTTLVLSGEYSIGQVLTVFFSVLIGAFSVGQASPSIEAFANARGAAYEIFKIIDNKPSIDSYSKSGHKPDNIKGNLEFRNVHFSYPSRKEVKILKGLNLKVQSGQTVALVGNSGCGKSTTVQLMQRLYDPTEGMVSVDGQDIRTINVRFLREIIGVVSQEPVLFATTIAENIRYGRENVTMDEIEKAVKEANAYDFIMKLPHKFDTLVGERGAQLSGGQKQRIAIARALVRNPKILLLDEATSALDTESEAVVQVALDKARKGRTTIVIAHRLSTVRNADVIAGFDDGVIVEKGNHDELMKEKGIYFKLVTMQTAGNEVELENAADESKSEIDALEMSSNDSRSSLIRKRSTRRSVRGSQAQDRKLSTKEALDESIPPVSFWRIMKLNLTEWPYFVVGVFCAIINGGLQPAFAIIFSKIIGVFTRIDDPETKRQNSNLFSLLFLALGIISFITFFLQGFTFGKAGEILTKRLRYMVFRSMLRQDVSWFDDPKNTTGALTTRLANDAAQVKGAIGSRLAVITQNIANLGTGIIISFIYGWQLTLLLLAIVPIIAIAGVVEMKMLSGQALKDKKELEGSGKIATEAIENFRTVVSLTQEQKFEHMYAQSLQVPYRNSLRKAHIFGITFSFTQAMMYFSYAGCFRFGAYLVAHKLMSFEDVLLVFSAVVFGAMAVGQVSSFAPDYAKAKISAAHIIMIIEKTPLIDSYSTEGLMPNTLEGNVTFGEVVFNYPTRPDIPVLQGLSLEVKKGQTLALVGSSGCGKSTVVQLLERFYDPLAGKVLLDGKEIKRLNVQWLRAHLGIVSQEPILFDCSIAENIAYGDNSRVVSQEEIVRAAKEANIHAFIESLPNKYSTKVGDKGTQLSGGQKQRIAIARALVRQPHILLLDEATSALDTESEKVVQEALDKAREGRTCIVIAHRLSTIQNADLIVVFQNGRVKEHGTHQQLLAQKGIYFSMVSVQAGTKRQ

P-gp EC50 (P-gp [1])	EC50 (BCRP)	EC50 (MRP1)	fraction unbound [2]	Kd [2]	ATP-ase cell depletion (P-gp [3])	Structure (SMILES)	Cytotoxicity (MTT) (MDCK-MDR1; 24 h)	Cytotoxicity (MTT) (MDCK-MDR1; 48 h)	also measured
4,0±0.2 nM	> 80 nM	> 500 nM	0.095	64700 nM	30%	COc1cc2c(cc1OC)CN(CCc1ccc(NC(=O)c3cc(OC)c(OC)cc3NC(=O)c3cnc4ccccc4c3)cc1)CC2 [Tariquidar, reference compound]	8%	19%	EC50 (P-gp [4]): 24 nM
–	–	–	–	–	–	COc1cc(NC(=O)c2cnc3ccccc3c2)c(C(=O)Nc2ccc(CCN3CCc4cc(OCC[18F])c(OC)cc4C3)cc2)cc1OC [Formula 1b]	–	–	Brain uptake (microPET) (P-gp [5]; P-gp knock-out mice (MDR 1a/b −/−)): same reduction of uptake at brain level; Brain uptake (microPET) (P-gp [5]; wild type mice, co-injection of tariquidar): strongly reduced; Brain uptake (microPET) (P-gp [5]; wild type mice, tracer alone): binding of radiolabeled compound of formula 1b at brain level
8,0±0.2 nM	> 500 nM	> 500 nM	0.539	717000 nM	20%	COc1cc(NC(=O)c2cnc3ccccc3c2)c(C(=O)Nc2ccc(CCN3CCc4cc(OCCF)c(OC)cc4C3)cc2)cc1OC [Formula 1a, N-(2-((4-(2-(6-(2-fluoroethoxy)-7-methoxy-3,4-dihydroisoquinolin-2(1H)-yl)ethyl)phenyl)carbamoyl)-4,5-dimethoxyphenyl)quinoline-3-carboxamide]	5%	15%	EC50 (P-gp [1]): 8 nM; efflux ratio at 120 min (P-gp [6]): 16 ± 0.7; Kd [7]: 717000 nM; % remaining at 30 min [8]: 88%; Unchanged form (%) ([9]; after 30 min): 91%; Unchanged form (%) ([9]; after 60 min): 85%; Stability in serosal compartment ([10]; after 60 min): 83%; Stability in serosal compartment ([10]; after 120 min): 75%; Crossing into the mucosal compartment ([10]; inserted in serosal compartment, 120 mins): unable to cross into the mucosal compartment
